Calls of active or inactive are those of the source. The calls are words filed in the database; no cut-off is given here.

One data set has as its system MIN6. Nature of the data set: Cytotoxicity in mouse MIN6 cells assessed as caspase 3/7 activity at 100 uM incubated for 72 hrs by fluorescence assay. It counts as cell-based. The note with it: min6, 72 h.
The nature of data set [1]: Tlast in CD-1 mouse at 10 mg/kg, po measured up to 8 hrs by LC-MS/MS analysis. It counts as ADME, organism-based. The note with it: in vivo.
A short description of data set [2]: AUC (0 to t) in CD-1 mouse at 10 mg/kg, po measured up to 8 hrs by LC-MS/MS analysis. It counts as ADME, organism-based. Also noted: route oral, dose 10 mg/kg, time <=8. The conditions noted are these: in vivo.
For data set [3], the system named is Mus musculus. Nature of the data set: Antidiabetic activity in db/db mouse assessed as reduction in plasma glucose level at 30 mg/kg, po pretreated 1 hr before glucose challenge measured up to 120 mins by Oral glucose tolerance test. It counts as functional, organism-based.
The target of data set [4] is T1, Peroxisome proliferator-activated receptor gamma (Homo sapiens, UniProt P37231).
T1 sequence (P37231 whole entry): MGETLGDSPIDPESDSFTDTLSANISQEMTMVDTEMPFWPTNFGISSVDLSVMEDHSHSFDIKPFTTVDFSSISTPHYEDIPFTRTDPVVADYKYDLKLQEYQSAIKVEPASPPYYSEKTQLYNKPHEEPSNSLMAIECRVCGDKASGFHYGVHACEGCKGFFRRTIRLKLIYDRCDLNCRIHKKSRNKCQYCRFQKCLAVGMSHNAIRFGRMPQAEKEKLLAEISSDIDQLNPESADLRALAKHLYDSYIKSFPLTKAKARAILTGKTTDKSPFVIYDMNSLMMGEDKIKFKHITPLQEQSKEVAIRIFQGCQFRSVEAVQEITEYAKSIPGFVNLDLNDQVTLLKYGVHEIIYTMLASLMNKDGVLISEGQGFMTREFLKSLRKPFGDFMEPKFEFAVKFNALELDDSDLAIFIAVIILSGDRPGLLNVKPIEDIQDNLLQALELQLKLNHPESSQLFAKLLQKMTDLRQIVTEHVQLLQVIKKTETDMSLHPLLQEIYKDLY
Nature of the data set: Agonist activity at human PPARgamma expressed in CHO cells assessed as increase in receptor transcriptional activity incubated for 24 hrs by dual luciferase reporter gene assay. It counts as cell-based. (Reporter assays use an easily measured gene product as a stand-in for the process of interest.)

Data set [5] has as its target Free fatty acid receptor 1 (Mus musculus) (UniProt Q76JU9). Nature of the data set: Agonist activity at GPR40 in mouse MIN6 cells assessed as fold increase in 17 mM glucose-mediated insulin secretion at 1 to 10 uM incubated for 2 hrs in presence of GW1100 by ELISA relative to control. The conditions noted are these: dose 1-10 µM. It counts as functional, cell-based. A general note: ELISA stands for enzyme-linked immunosorbent assay.

In data set [6] the test system is Mus musculus. Nature of the data set: Antidiabetic activity in C57BL/6J mouse assessed as increase in plasma GLP1 level at 30 mg/kg, po measured after 30 mins by ELISA relative control. It counts as functional, organism-based.
Data set [7] addresses T2, Free fatty acid receptor 1 (Homo sapiens, UniProt O14842). Nature of the data set: Agonist activity at GPR40 (unknown origin) expressed in CHO cells co-expressing luc2P/SRE assessed as induction of TAK875-induced firefly luciferase activity incubated for 24 hrs by Bright-Glo based serum response element (SRE) luciferase reporter assay. It counts as functional, cell-based. The note with it: filed as positive allosteric modulator.

Data set [8] can be described thus: MRTlast in CD-1 mouse at 90 mg/kg, po measured up to 8 hrs by LC-MS/MS analysis. It counts as ADME, organism-based. The conditions noted are these: in vivo.
Data set [9] addresses T2, Free fatty acid receptor 1. Nature of the data set: Agonist activity at GPR40 (unknown origin) expressed in CHO cells co-expressing luc2P/CRE (Gs) assessed as firefly luciferase activity at 10 uM incubated for 24 hrs by Bright-Glo based […] luciferase reporter assay. It counts as functional, cell-based.
The subject of data set [10] is Mus musculus. Nature of the data set: Antidiabetic activity in C57BL/6J mouse assessed as increase in plasma GLP1 level at 30 mg/kg, po measured after 30 mins in presence of KR-62436 by ELISA relative to KR-62436 treated control. It counts as functional. The note with it: 0.5 h.
The target of data set [11] is T2, Free fatty acid receptor 1. Nature of the data set: Agonist activity at GPR40 (unknown origin) expressed in CHO cells co-expressing luc2P/SRE assessed as firefly luciferase activity at 10 uM incubated for 24 hrs hrs by Bright-Glo based serum response element (SRE) luciferase reporter assay relative to TAK875. It counts as functional, cell-based. The note with it: filed as positive allosteric modulator.

Data set [12] concerns the target T2, Free fatty acid receptor 1. Nature of the data set: Agonist activity at GPR40 (unknown origin) expressed in CHO cells co-expressing luc2P/SRE assessed as induction of DHA-induced firefly luciferase activity incubated for 24 hrs by Bright-Glo based serum response element (SRE) luciferase reporter assay. It counts as functional, cell-based. The note with it: filed as positive allosteric modulator.

Data set [13] concerns the target Free fatty acid receptor 1 (Mus musculus) (UniProt Q76JU9). Nature of the data set: Agonist activity at GPR40 in mouse MIN6 cells assessed as fold increase in 17 mM glucose-mediated insulin secretion at 1 to 10 uM incubated for 2 hrs by ELISA relative to control. It counts as functional, cell-based. The conditions noted are these: filed as positive allosteric modulator, dose 1-10 µM.

Data set [14] concerns the target T3, Peroxisome proliferator-activated receptor gamma (Homo sapiens) (UniProt P37231).
T3 sequence (whole entry): T1 sequence (P37231 whole entry)
Nature of the data set: Agonist activity at human PPARgamma expressed in CHO cells assessed as increase in receptor transcriptional activity at 1 uM incubated for 24 hrs by dual luciferase reporter gene assay relative to rosiglitazone. It counts as cell-based.

Sequence of Free fatty acid receptor 1 (Mus musculus) (Q76JU9 whole entry): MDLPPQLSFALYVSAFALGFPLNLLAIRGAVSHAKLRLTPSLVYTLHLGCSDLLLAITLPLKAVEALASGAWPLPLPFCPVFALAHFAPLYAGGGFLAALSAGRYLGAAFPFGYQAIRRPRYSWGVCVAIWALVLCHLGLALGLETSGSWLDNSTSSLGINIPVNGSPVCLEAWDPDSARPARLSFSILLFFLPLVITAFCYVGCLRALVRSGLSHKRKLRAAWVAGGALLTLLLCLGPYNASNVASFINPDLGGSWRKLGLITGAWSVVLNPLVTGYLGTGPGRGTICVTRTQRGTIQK
T2 sequence (O14842 whole entry): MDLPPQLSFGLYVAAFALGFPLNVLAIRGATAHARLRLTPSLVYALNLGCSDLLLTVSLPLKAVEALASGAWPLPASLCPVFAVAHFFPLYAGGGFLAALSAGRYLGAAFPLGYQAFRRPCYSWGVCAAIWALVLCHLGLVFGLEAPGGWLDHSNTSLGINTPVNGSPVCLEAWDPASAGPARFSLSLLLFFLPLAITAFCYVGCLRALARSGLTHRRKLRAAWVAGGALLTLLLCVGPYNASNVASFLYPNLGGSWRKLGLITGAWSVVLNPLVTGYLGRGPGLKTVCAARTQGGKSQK

In the case of `Cc1ccc(C)c(-c2cc3cc(CCC(=O)O)ccc3[nH]2)c1`, the figures for the Activity entry with MIN6 and with Mus musculus [10] were “Non-Toxic” and 163%, respectively. In [1], this compound returned a Tlast of 8 h. Besides, in [2], the AUC(0-t) at 8 h is 114000 ng·h/mL. For the same compound, the outcome (in the data set on Mus musculus [3]; in the data set on Mus musculus [6]; in data set [7]; in data set [12]) was Active. In addition, the concentration for a half-maximal effect (EC50) result in [4] (cho) is “Not Active”; in data set [9], 12.9 µM. In data set [5], the result was inactive. Also, the MRT last at 8 h in [8] is 2.31 h. For the same compound, the Emax in data set [11] was 103%.

On to `Cc1cc(F)ccc1-c1cc2cc(CCC(=O)O)ccc2[nH]1`, for which the fold change (FC) in data set [13] came to 1.16. In addition, the values for the Emax in [14] and in data set [11] were 32.5% and 111%, respectively. In addition, the Activity entry in the data set with MIN6 is “Non-Toxic”. Also, in data set [1], the Tlast was 8 h. The compound also had an AUC(0-t) at 8 h in data set [2] of 4860 ng·h/mL. The figures for the EC50 in [4] (read-out: EC50) and in [9] were 56.9 µM and 0.521 µM, respectively. The outcome in data set [5] was inactive. Besides, the outcome in [7] and in [12] was Active. The compound further showed an MRT last at 8 h in data set [8] of 1.14 h.

What is called AUC(0-t) is the area under the concentration-time curve up to a stated or last time point. A higher AUC(0-t) goes with high exposure. A word on the EC50: it is the concentration that produces a half-maximal response. By MRT last is commonly meant a mean duration of stay, worked out from the concentration-time curve.
